This is an account of results in patent publication US12102672B2, “Immunogenic sequences from a phage tail length tape measure protein, bacteria expressing the same and their use in treating a cancer” (INSTITUT GUSTAVE ROUSSY, priority 2017, dated 2024).

In one experiment the test system is MCA205 sarcoma. As to the kind of experiment: Prophylactic vaccination with pulsed DCs followed by MCA205 challenge. The class given is in vivo, C57BL/6 mice. To be noted: poly I:C-activated BM-DC pulsed with peptides (20 μg/ml) or heat-inactivated bacteria, s.c. twice 10 days apart. The method, then: FIG. 16. Protocol of immunization with DC pulsed with TMP peptides. After DCs differentiation (with GM-CSF and IL-4 during 6 days), we incubated them with poly I:C (10 μg/ml) overnight before the addition of peptide (1 hour) or heat-inactivated bacteria (6 hours). These DCs are injected subcutaneous on right flank at day 0 and 10. […] We constitute 4 groups, one group without DCs, one group with DCs pulsed with 20 μg/ml of irrelevant peptides (gr1) or TMP peptides or 13144 heat-inactivated bacteria. Mean tumor sizes over time (A), each mouse tumor kinetics for each group (B), and the detailed comparison in between groups at the two last time points before sacrifice for MCA205 are shown (C), each dot representing one mouse. MC38 related data are not shown.
FIG. 17. […] Tumor growth of MCA205 in mice vaccinated with DCs pulsed with gr1 peptides, TMP peptides and E. hirae 13144. (A) Mean±SEM of tumor sizes at different kinetics. (B) Tumor growth kinetics for each individual group of 5-10 mice. (C) Tumor sizes and statistical differences at time of sacrifice.
A-B. Prophylactic vaccinations. […] C-D. Therapeutic settings.
After DCs differentiation, these DCs were activated with poly I:C (10 μg/ml, Invivogen) overnight before infection with heat-inactivated (2 h at 65° C.) bacterial strains (MOI 10) or pulsed with peptides (20 μg/ml, peptide 2.0). […]

The test system of the next experiment is ileal bacterial colonies. Kind of experiment: Culturomics and TMP PCR of ileal content after gavage with E. hirae 13144 and CTX. The class given is in vivo, C57BL/6 mice. To be noted: 76 colonies, oral gavage + systemic CTX. From the text:
. […] Also refer to FIG. 39.
PCR amplification of the TMP sequence (refer to FIG. 36) in each colony growing after seeding of ileal content in aerobic conditions to isolate Gram+ bacteria. A photograph of each agarose electrophoresis gel is shown for each animal. A depicts the results in 5 naive mice and B depicts the findings after CTX+oral gavage with the phage encoding bacterium. Each vertical lane corresponds to one bacterium identified in MALDI-TOF. Initials are detailed in the lower part of panel A. The positive control (Ctl+) represents the DNA of E. hirae 13144.
We cultivated the stools (of patients) or ileal material (mice) after several dilutions in aerobic conditions and permissive medium to allow isolation of enterococci colonies (according to a procedure described in (Samb-Ba et al., 2014)). We performed a PCR of the TMP sequence in each single cultivable Enterococcus colony. One colony was put in 100 μl of nuclease-free water to release the bacterial DNA and PCR was performed with 5 μl of DNA, 12.5 μl of PCR master mix (Thermoscientific), 5 μl of nuclease-free water and 1.25 μl of each TMP primers (20 µM). […] The sequence of primers are: forward 5′-[…]-3′ ID No: reverse 5′-(SEQ 191) and […]-3′ (SEQ ID No: 192) (amplicon 1026 bp). […]

For the substance “Enterococcus hirae strain 13144 [Peptide 13144]”, the “protection against MCA205 tumor challenge” value with MCA205 sarcoma is recorded as “reduced tumor growth”. In addition, the “in vivo transduction of by-stander Enterococci by the phage” value in the experiment with ileal bacterial colonies is on record as “E. gallinarum was the only by-stander Enterococci transduced”.
